One may read the LD50 as the dose at which mortality reaches 50%. A high value points to a less toxic substance.

The results in this text go back to patent US4436742A, “4-Hydroxy-2,1,3-benzthiadiazole compounds and β-adrenergic method of use therefor” (Boehringer Mannheim GmbH, priority 1974, dated 1984).

A short description of data set [1]: acute toxicity in mice, intravenous. Particulars: in vivo, mouse, i.v., dosage at which 50% of the mice die. The protocol: 1. The acute toxicity in mice when administered intravenouly was measured and the LD50 (=dosage at which 50% of the mice die) determined.
The next data set has as its system cardiac β-receptor. The data set can be described thus: inhibition of isoprenalin tachycardia in wake rabbits (cardiac β-receptor blocking activity). The data set is classed as in vivo, rabbit. As to conditions: for Heartbeat Frequency: isoprenalin 1 μg/kg i.v. 30 minutes after infusion, x ± sx; for DE250: i.v., interpolated dosage which limits the frequence increase to 250 beats/min. How it is done:
The following tests were carried out to determine the cardiac β-receptor blocking activity of certain test compounds by determining the inhibition of the heart beat frequency increase induced by intravenous administration of isoprenalin.
The β-receptor blocking activity of the test compounds was tested on wake rabbits weighing between 2 to 3.5 kg. and kept in wooden cages. EKG-electrodes were inserted into the hind quarters of the rabbits s.c. (II. lead) and the heart frequency was measured based on 20 heart beats. The test compounds were then infused through a small tube to the ear vein of the rabbits over a period of 15 minutes. 30 minutes after the infusion isoprenalin (3,4-dihydro-α-[(isopropylamino)-methyl]-benzylalcohol) was injected intravenously at 1 μg/kg.

Consider `CC(C)(C)NCC(O)COc1cccc2nsnc12` (centres unmarked) [Compound II], for which the LD50 in data set [1] is 45 mg/kg. The “Heartbeat Frequency” value in the data set with cardiac β-receptor (0.1 mg/kg i.v.) is listed as 308 ± 10 beats/min; with cardiac β-receptor (0.5 mg/kg i.v.), 245 ± 6 beats/min; in the data set with cardiac β-receptor (1.0 mg/kg i.v.) it was 215 ± 10 beats/min; in the data set with cardiac β-receptor (5.0 mg/kg i.v.) it was 220 ± 7 beats/min. Also, the DE250 in the data set on cardiac β-receptor amounted to 0.5 mg/kg.
Compound `CC(C)NCC(O)COc1cccc2nsnc12` (centres unmarked) [Compound I, 4-(3-Isopropylamino-2-hydroxy-propyloxy)-2,1,3-benzthiadiazole] had an LD50 in data set [1] of 50 mg/kg. Moreover, the “Heartbeat Frequency” value was determined as 324 ± 9 beats/min in the data set on cardiac β-receptor (0.01 mg/kg i.v.); 297 ± 10 beats/min in the data set with cardiac β-receptor (0.1 mg/kg i.v.); 266 ± 14 beats/min in the data set on cardiac β-receptor (0.3 mg/kg i.v.); 220 ± 14 beats/min in the data set on cardiac β-receptor (1.0 mg/kg i.v.); 210 ± 5 beats/min in the data set with cardiac β-receptor (5.0 mg/kg i.v.). This compound registered a DE250 in the data set on cardiac β-receptor of 0.7 mg/kg.
The compound `CC(C)NCC(O)COc1ccc2nsnc2c1` (centres unmarked) [Compound A, 5-(3-Isopropylamino-2-hydroxypropoxy)-2,1,3-benzo-thiadiazole, reference compound] had a 50% lethal dose (LD50) in data set [1] of 100 mg/kg. Also, the “Heartbeat Frequency” value in the data set with cardiac β-receptor (1.0 mg/kg i.v.) turned out to be 290 ± 8 beats/min; in the data set with cardiac β-receptor (5.0 mg/kg i.v.) it was 246 ± 7 beats/min. The compound also gave a DE250 with cardiac β-receptor of 5 mg/kg.
